For 43 compounds, IC50 results are on record in patent publication US6762188B1, “Pharmaceutically active benzoquinazoline compounds” (SmithKline Beecham Corporation, priority 1990, dated 2004).

pIC50: −log10 of the molar value.

The target of one test is T1, Mammalian Thymidylate Synthase (Homo sapiens, UniProt P04818).
T1 construct: made in house; host or cells: Escherichia coli
T1 sequence (P04818 whole entry): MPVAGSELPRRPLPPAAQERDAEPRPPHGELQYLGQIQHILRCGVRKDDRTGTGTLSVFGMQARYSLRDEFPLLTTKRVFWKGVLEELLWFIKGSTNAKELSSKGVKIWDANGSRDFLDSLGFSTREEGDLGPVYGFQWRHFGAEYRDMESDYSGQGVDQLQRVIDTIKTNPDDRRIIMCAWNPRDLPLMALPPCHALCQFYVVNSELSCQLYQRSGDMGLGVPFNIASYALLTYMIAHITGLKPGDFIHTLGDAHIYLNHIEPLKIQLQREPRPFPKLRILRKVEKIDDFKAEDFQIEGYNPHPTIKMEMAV
In words: Thymidylate synthase inhibition, tritium release assay. It counts as biochemical.
Details: not given
Compound `Nc1nc2c(c(=O)[nH]1)-c1ccc(S(N)(=O)=O)cc1CC2` [3-Amino-1,2,5,6-tetrahydro-1-oxobenzo(f)quinazoline-8-sulfonamide] showed a pIC50 of 3.52 to 6.00.

As for `Nc1nc(O)c2c(ccc3ccc(I)cc32)n1` [3-Amino-9-iodobenzo(f)quinazolin-1(2H)-one], the pIC50 is > 6.00.

The compound `COc1ccc2ccc3nc(N)[nH]c(=O)c3c2c1` [3-Amino-9-methoxybenzo(f)quinazolin-1(2H)-one] gave a pIC50 of 3.52 to 6.00.

On to `Nc1nc2ccc3cc(F)ccc3c2c(=O)[nH]1` [3-Amino-8-fluorobenzo(f)quinazolin-1(2H)-one], for which the pIC50 is 3.52 to 6.00.

Regarding `Nc1nc(O)c2c(ccc3ccc(Br)cc32)n1` [3-Amino-9-bromobenzo(f)quinazolin-1(2H)-one], the pIC50 was > 6.00.

On to `C#Cc1ccc2ccc3nc(N)[nH]c(=O)c3c2c1` [3-Amino-9-ethynylbenzo(f)quinazolin-1(2H)-one], for which the pIC50 was > 6.00.

For the compound `Nc1nc(O)c2c(n1)CCc1cc([N+](=O)[O-])ccc1-2` [3-Amino-5,6-dihydro-8-nitro(f)quinazolin-1(2H)-one], the pIC50 was 3.52 to 6.00.

In the case of `Nc1nc(O)c2c(ccc3ccc(F)cc32)n1` [3-Amino-9-fluorobenzo(f)quinazolin-1(2H)-one], the pIC50 was > 6.00.

On to `Nc1nc2ccc3cc([N+](=O)[O-])c(Br)cc3c2c(=O)[nH]1` [3-Amino-9-bromo-8-nitrobenzo(f)quinazolin-1(2H)-one], for which the pIC50 is 3.52 to 6.00.

For the compound `CCOc1ccc2ccc3nc(N)[nH]c(=O)c3c2c1` [3-Amino-9-ethoxybenzo(f)quinazolin-1(2H)-one], the pIC50 was 3.52 to 6.00.

Turning to `Nc1nc2ccc3ccc(Cl)cc3c2c(=O)[nH]1` [3-Amino-9-chlorobenzo(f)quinazolin-1(2H)-one], the pIC50 was > 6.00.

For `Nc1nc2ccc3cc(Cl)c(Cl)cc3c2c(=O)[nH]1` [3-Amino-8,9-dichlorobenzo(f)quinazolin-1(2H)-one], the pIC50 was > 6.00.

Turning to `Nc1nc(O)c2c(ccc3cc(N)c(Br)cc32)n1` [3,8-Diamino-9-bromobenzo(f)quinazolin-1(2H)-one], the pIC50 was > 6.00.

For the compound `Nc1nc2ccc3ccc(NS(=O)(=O)c4ccc(C(=O)O)cc4)cc3c2c(=O)[nH]1` [4-(((3-Amino-1,2-dihydro-1-oxobenzo(f)quinazolin-9-yl)amino)sulfonyl)benzoic acid], the pIC50 was > 6.00.

As for `Cc1nc2c(c(=O)[nH]1)-c1cc(S(=O)(=O)Cl)ccc1CC2` [1,2,5,6-Tetrahydro-3-methyl-1-oxobenzo(f)quinazoline-9-sulfonylchloride], the pIC50 is 3.52 to 6.00.

The test is the same for the next values; noted with them: Table A; vs. mammalian enzymes; read-out: I50.
In the case of `Nc1nc2c(c(=O)[nH]1)-c1ccc(Cl)cc1CC2` [3-Amino-8-chloro-5,6-dihydrobenzo(f)quinazolin-1(2H)-one], the pIC50 is 3.52 to 6.00.

In the case of `CC1Cc2nc(N)nc(O)c2-c2ccc(Cl)cc21` (stereo not shown) [3-Amino-8-chloro-5,6-dihydro-6-methylbenzo(f)quinazolin-1(2H)-one], the pIC50 was 3.52 to 6.00.

For `Nc1nc2ccc3cccc([N+](=O)[O-])c3c2c(=O)[nH]1` [3-Amino-10-nitrobenzo(f)quinazolin-1(2H)-one], the pIC50 is 3.52 to 6.00.

With `CC1Cc2nc(N)nc(O)c2-c2cc(Cl)ccc21` (stereo not shown) [3-Amino-9-chloro-5,6-dihydro-6-methylbenzo(f)quinazolin-1(2H)-one], the pIC50 was > 6.00.

Turning to `Cc1cccc2c1CCc1nc(N)[nH]c(=O)c1-2` [3-Amino-5,6-dihydro-7-methylbenzo(f)quinazolin-1(2H)-one], the pIC50 is 3.52 to 6.00.

On to `Cc1nc2c(c(=O)[nH]1)-c1cccc(Cl)c1CC2` [7-Chloro-5,6-dihydro-3-methylbenzo(f)quinazolin-1(2H)-one], for which the pIC50 was 3.52 to 6.00.

For the compound `Nc1nc(O)c2c(cc(CO)c3ccccc32)n1` [3-Amino-6-(hydroxymethyl)benzo(f)quinazolin-1(2H)-one], the pIC50 was 3.52 to 6.00.

On to `Nc1nc(O)c2c(ccc3c(N)cccc32)n1` [3,7-Diaminobenzo(f)quinazolin-1(2H)-one], for which the pIC50 is 3.52 to 6.00.

As to `Nc1cc(N)c2c(ccc3nc(N)[nH]c(=O)c32)c1` [3,8,10-Triaminobenzo(f)quinazolin-1(2H)-one], the pIC50 is 3.52 to 6.00.

For `Nc1nc(O)c2c(n1)CCc1c(I)cccc1-2` [3-Amino-5,6-dihydro-7-iodobenzo(f)quinazolin-1(2H)-one], the pIC50 is 3.52 to 6.00.

`Nc1nc2c(c(=O)[nH]1)-c1cccc(F)c1CC2` [3-Amino-7-fluoro-5,6-dihydrobenzo(f)quinazolin-1(2H)-one]: the pIC50 is 3.52 to 6.00.

With `CCSc1ccc2ccc3nc(N)nc(O)c3c2c1` [3-Amino-9-(ethylthio)benzo(f)quinazolin-1(2H)-one], the pIC50 was 3.52 to 6.00.

Consider `Nc1ccc2c(c1)CCc1nc(N)[nH]c(=O)c1-2` [3,8-Diamino-5,6-dihydrobenzo(f)quinazolin-1(2H)-one], for which the pIC50 was 3.52 to 6.00.

Regarding `CC1(C)Cc2nc(N)nc(O)c2-c2ccccc21` [3-Amino-5,6-dihydro-6,6-dimethylbenzo(f)quinazolin-1(2H)-one], the pIC50 is 3.52 to 6.00.

On to `Nc1nc2ccc3c(Br)c(N)c(Br)cc3c2c(=O)[nH]1` [3,8-Diamino-7,9-dibromobenzo(f)quinazolin-1(2H)-one], for which the pIC50 was 3.52 to 6.00.

On to `Cc1cc2nc(N)[nH]c(=O)c2c2ccccc12` [3-Amino-6-methylbenzo(f)quinazolin-1(2H)-one], for which the pIC50 was 3.52 to 6.00.

Turning to `Nc1nc2ccc3cc(Cl)ccc3c2c(=O)[nH]1` [3-Amino-8-chlorobenzo(f)quinazolin-1(2H)-one], the pIC50 was 3.52 to 6.00.

In the case of `Cc1cc(C)c2ccc3nc(N)[nH]c(=O)c3c2c1` [3-Amino-7,9-dimethylbenzo(f)quinazolin-1(2H)-one], the pIC50 was 3.52 to 6.00.

On to `Nc1nc(O)c2c(ccc3cccc(N)c32)n1` [3,10-diaminobenzo(f)quinazolin-1(2H)-one], for which the pIC50 was 3.52 to 6.00.

As to `Nc1nc(O)c2c(ccc3cc(Br)c([N+](=O)[O-])cc32)n1` [3-Amino-8-bromo-9-nitrobenzo(f)quinazolin-1(2H)-one], the pIC50 was 3.52 to 6.00.

Consider `Nc1nc2ccc3cc([N+](=O)[O-])cc([N+](=O)[O-])c3c2c(=O)[nH]1` [3-Amino-8,10-dinitrobenzo(f)quinazolin-1(2H)-one], for which the pIC50 was 3.52 to 6.00.

For `CC1Cc2nc(N)nc(O)c2-c2ccccc21` (stereo not shown) [3-Amino-5,6-dihydro-6-methylbenzo(f)quinazolin-1(2H)-one], the pIC50 was 3.52 to 6.00.

Turning to `Cc1cc(C)c2c(c1)-c1c(nc(N)[nH]c1=O)CC2` [3-Amino-5,6-dihydro-7,9-dimethylbenzo(f)quinazolin-1(2H)-one], the pIC50 was 3.52 to 6.00.

On to `Nc1nc2c(c(=O)[nH]1)-c1cccc(Br)c1CC2` [3-Amino-7-bromo-5,6-dihydrobenzo(f)quinazolin-1(2H)-one], for which the pIC50 was 3.52 to 6.00.

Consider `Nc1ccc2c(c1)-c1c(nc(N)[nH]c1=O)CC2` [3,9-Diamino-5,6-dihydrobenzo(f)quinazolin-1(2H)-one], for which the pIC50 was 3.52 to 6.00.

On to `Nc1nc2c(c(=O)[nH]1)-c1cc(O)ccc1CC2` [3-Amino-5,6-dihydro-9-hydroxybenzo(f)quinazolin-1(2H)-one], for which the pIC50 was 3.52 to 6.00.

Take `Cc1ccc2c(c1)-c1c(O)nc(N)nc1CC2` [3-Amino-5,6-dihydro-9-methylbenzo(f)quinazolin-1(2H)-one]: the pIC50 is > 6.00.

Regarding `Cc1cc2nc(N)[nH]c(=O)c2c2ccc(Cl)cc12` [3-Amino-8-chloro-6-methylbenzo(f)quinazolin-1(2H)-one], the pIC50 was 3.52 to 6.00.
